Measured values as given in patent US20160038485A1, “PHASE 2 INDUCERS AND RELATED SIGNALING PATHWAYS PROTECT CARTILAGE AGAINST INFLAMMATION, APOPTOSIS AND STRESS” (THE JOHNS HOPKINS UNIVERSITY, priority 2006, published 2016).

Legend:
Format in all cases: cell-based, human
[1] = tested on: NQO1; assay: NQO1 enzyme activity in shear-activated chondrocytes; conditions: T/C28a2, high shear (20 dyn/cm^2); SFN 1.25 μM, D3T 5 μM, CAY10404 6.75 μM, NS398 30 μM
Method: (§1) Cell Culture and Shear Stress Exposure: Human T/C28a2 chondrocytic cells were grown (37° C., 5% CO2) in 1:1 Ham's F-12/DMEM (Biowhittaker) supplemented with 10% FBS. Prior to shear exposure, T/C28a2 cells were incubated for 24 hours in serum-free medium containing 1% Nutridoma-SP (Roche), a low-protein serum replacement that maintains chondrocyte phenotype. Primary HUVECs were cultured as described (Goldring, M. B., 2004). T/C28a2 cells were exposed to shear stress in media containing 1% Nutridoma by use of a parallel-plate flow chamber with a recirculating flow loop (37° C., 5% CO2) (10). HUVECs were treated similarly by circulating media supplemented with 10% FBS.
(§2) Cell Viability, NQO1 activity, Glutathione levels, and Prostaglandin (PG)E2 production: Cell viability was monitored with the MTT assay (Gao, X. et al. 2001). NQO1 activity and total GSH (oxidized and reduced) levels of cell lysates were determined in 96-well microtiter plates. PGE2 levels were determined in media by the Prostaglandin E2 monoclonal EIA kit (Cayman Chemical).

[2] = tested on: ARE-driven NQO1 promoter; assay: Promoter activity assay (pNQO1/ARE-luc); conditions: transfected T/C28a2 cells; SFN 1.25 μM or D3T 5 μM, 24 h, static conditions
Method: Transient Transfection and Plasmid Constructs: T/C28a2 cells were transfected with 10 μg of plasmid and 2 μg of control with Lipofectamine and Plus Reagent (Invitrogen). Cells were allowed to recover for 3 hours, incubated overnight in medium containing 1% Nutridoma, and exposed to the indicated treatments. Efficiency was assessed by flow cytometry with pEGFP-N2 (BD Biosciences). pCMV-mNrf2 and pNQO1/ARE-luc constructs were provided by N. Wakabayashi (Wakabayashi, N. et al. 2004). Igarashi, K., et al. 1994), and pBJ M-pl 10*-myc, pBJ M<<pl 10-UR, and pCG pi 10 wt constructs were provided by A. Kippel (Hu, Q., et al. 1995).
Promoter Activity Assay: T/C28a2 cells were transfected with 10 μg of pNQO1/ARE-luc and 1 μg each of pEGFP-N2 and pSV40-hRL2 (Promega) to normalize transfection efficiency. Firefly and Renilla luciferase activities were measured using the Dual-Luciferase Report Assay kit (Promega).

[3] = tested on: T/C28a2 cells; assay: Total glutathione (GSH) levels in shear-activated chondrocytes; conditions: T/C28a2, high shear (20 dyn/cm^2); SFN 1.25 μM, CAY10404 6.75 μM, NS398 30 μM
Method: as §1, §2

[4] = tested on: T/C28a2 cells; assay: Shear-induced PGE2 production (EIA of culture media); conditions: D3T 5 μM; fluid shear 48 hours
Method: as §1, §2

[5] = tested on: COX-I; assay: Intracellular COX-1 protein staining, flow cytometry; conditions: D3T 5 μM; static or laminar shear 5 or 20 dyn/cm^2, 48 hours
Method: as §1
(§3) Intracellular Protein Staining and Western Blots: T/C28a2 cells were fixed in 1.0% formaldehyde for 10 min at 37° C., permeabilized in 90% methanol for 20 minutes on ice, and incubated at 25° C. for 10 min in blocking buffer (0.5% BSA). Specimens were then incubated with fluorophore-conjugated monoclonal antibodies specific for COX-I (COX-1/FITC) and COX-2 (COX-2/PE) (Cayman Chemical) or isotype controls (BD Biosciences) for 30 min, washed 2× in blocking buffer, and analyzed by flow cytometry. For Western blots, total cell lysates were subjected to SDS/PAGE, transferred to a membrane, and probed with caspase-9 and β-actin antibodies (Upstate).

[6] = tested on: T/C28a2 cells; assay: Shear-induced apoptosis: DNA fragmentation (TUNEL) and mitochondrial membrane depolarization; conditions: 20 dyn/cm^2, 48 h; D3T 5 μM, CAY10404 6.75 μM, NS398 30 μM
Method: as §1
DNA Fragmentation and Mitochondrial Depolarization: For DNA fragmentation, cells were fixed in 4% paraformaldehyde for 1 hour at 25° C., washed 2× in PBS, and permeabilized briefly in 0.1% Triton-X100/0.1% sodium citrate on ice. Subsequently, cells were washed 2× in PBS, labeled using the In Situ Cell Death Kit (Roche), and analyzed by flow cytometry. To quantify Mitochondrial Membrane Potential (MMP), cells were labeled using the MitoProbe JC-I Kit (Molecular Probes).

[7] = tested on: COX-2; assay: Intracellular COX-2 protein staining, flow cytometry; conditions: D3T 5 μM; 20 dyn/cm^2, 48 hours
Method: as §1, §3

[8] = tested on: T/C28a2 chondrocytic cells; assay: DNA microarray analysis of shear-induced mRNA response of chondrocytes; design: COX-1 (cyclooxygenase-1) microarray intensity ratio (shear/static): dose or concentration left out as unconfirmed; conditions: 20 dyn/cm2, 48 hr, mean ± SD
Method: as §1
Microarray Hybridization and Analysis: Cy-3- and Cy-5-labeled probes were mixed, dried, resuspended in hybridization buffer (50% formamide, 10×SSC, 0.2% SDS, COT-I DNA, Poly(A)-DNA), and denatured. The probes were added to microarray slides printed with a set of 32,448 or 39,936 expressed sequence tags (ESTs), allowed to hybridize at 42° C. overnight, and processed as described (Abulencia, J. P., et al. 2003. Hegde, P. et al. 2000). Expression ratios were derived using TIGR Spotfinder (Abulencia, J. P. et al. 2003, Hegde, P. et al. 2000). Differentially expressed genes were identified by Significance Analysis of Microarrays, and analyzed with the software TMEV (Abulencia, J. P. et al. 2003).
Quantitative Real-Time PCR (qRT-PCR) was used to verify DNA microarray data. Incorporation of SYBR Green into PCR products was monitored with the 7900HT detection system.

[9] = tested on: caspase-9; assay: Caspase-9 immunoblot analysis; conditions: high shear 20 dyn/cm^2
Method: as §1, §3

[10] = 5 μM D3T (shear) vs 0.1% DMSO (static)

## C[S@@+]([O-])CCCCN=C=S [SFN, (−)-1-isothiocyanato-4(R)-(methylsulfinyl)-butane]
[1]
  shear-induced suppression of NQO1 activity: abolished
[2]
  ARE-driven NQO1 promoter luciferase activity: increases the luciferase activity
[3]
  shear-induced suppression of intracellular GSH levels: abolished

## S=c1ccss1 [D3T, 1,2-dithiole-3-thione]
[4]
  PGE2 production in chondrocytes subjected to high shear: nearly abrogated
[5]
  COX-I expression: remains unchanged
[1]
  shear-induced suppression of NQO1 activity: likewise effective in suppressing the shear-mediated reduction of phase 2 enzyme activity
[6]
  shear-induced apoptosis (DNA fragmentation TUNEL, mitochondrial membrane depolarization MMP): essentially abrogated
[2]
  ARE-driven NQO1 promoter luciferase activity: increases the luciferase activity
[7]
  COX-2 protein expression in chondrocytes subjected to high shear: nearly abrogated
[8]; [10]
  COX-2 (cyclooxygenase-2) microarray intensity ratio (shear/static): 1.3 ± 0.2
  Caspase-9 precursor microarray intensity ratio (shear/static): 0.8 ± 0.1
  GCLR (γ-glutamylcysteine ligase) microarray intensity ratio (shear/static): 1.6 ± 0.1
  GST μ1 (glutathione S-transferase) microarray intensity ratio (shear/static): 1.6 ± 0.1
  Glutathione reductase microarray intensity ratio (shear/static): 2.8 ± 0.1
  HO-1 (Heme Oxygenase-1) microarray intensity ratio (shear/static): 1.2 ± 0.1
  HO-2 (Heme Oxygenase-2) microarray intensity ratio (shear/static): 0.9 ± 0.1
  JNK2 (c-jun N-terminal kinase 2) microarray intensity ratio (shear/static): 1.6 ± 0.1
  NQO1 (NAD(P)H:quinone reductase-1) microarray intensity ratio (shear/static): 1.3 ± 0.1
  Nrf2 (NF-E2 related factor 2) microarray intensity ratio (shear/static): 1.3 ± 0.1
  PI3K (phosphoinositol kinase 3) microarray intensity ratio (shear/static): 0.8 ± 0.2
  Transcription Factor AP-1 (c-jun) microarray intensity ratio (shear/static): 1.4 ± 0.1
  UDP-glucuronosyltransferase microarray intensity ratio (shear/static): 1.0 ± 0.1
[8]
  COX-1 (cyclooxygenase-1) microarray intensity ratio (shear/static): 1.3 ± 0.1
[9]
  expression of proform (46 kDa) and active form (34 kDa) of caspase-9: substantially reduced expression
